# In patent US20260297085A1, “1 H-PYRROLO[2,3-B]PYRIDIN-4-YL]-2-OXOPYRROLIDINE-3-CARBONITRILE DERIVATIVES AS TYROSINE KINASE 2 (TYK2) INHIBITORS FOR THE TREATMENT OF INFLAMMATORY DISEASES” (BIOGEN MA INC., priority 2023, published 2026):
# Counter-ions that a name gives are not always drawn.
# Columns and labels:
# [1] = biological target: T1, human TYK2 kinase domain (JH1) (Homo sapiens, UniProt P29597); experiment: JH1 biochemical assay for TYK2 (ADP-Glo kinase assay, recombinant JH1 catalytic domain, JAK3-974 peptide, 10 μM ATP); conditions: JH1 kinase domain, ADP-Glo
# T1 construct: recombinantly generated catalytic kinase (also known as JH1) domain of human JAK1, JAK2, JAK3 and TYK2
# T1 sequence (P29597 897-1176 limits assumed): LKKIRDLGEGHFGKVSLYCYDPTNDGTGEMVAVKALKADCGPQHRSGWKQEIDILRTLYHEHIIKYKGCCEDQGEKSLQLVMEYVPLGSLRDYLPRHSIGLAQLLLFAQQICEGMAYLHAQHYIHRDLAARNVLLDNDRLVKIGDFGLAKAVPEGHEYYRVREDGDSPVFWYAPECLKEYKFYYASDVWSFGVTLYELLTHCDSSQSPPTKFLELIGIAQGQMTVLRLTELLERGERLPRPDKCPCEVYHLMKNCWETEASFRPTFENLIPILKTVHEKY
# Method in brief: (§1)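 ADP-Glo luminescence with 50 μM peptide and 100 min reactions: JAK1 4 nM with JAK3-342 peptide; JAK2, JAK3 and TYK2 at 0.2, 0.3 and 2 nM with JAK3-974 peptide. Compounds tested from 10 or 1 μM top, 11 points, 3-fold. IC50 from a 4-parameter logistic fit of normalized activity.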
# [2] = biological target: T2, human JAK1 kinase domain (JH1) (Homo sapiens, UniProt P23458); experiment: JH1 biochemical assay for JAK1 (ADP-Glo kinase assay, recombinant JH1 catalytic domain, JAK3-342 peptide, 35 μM ATP); conditions: JH1 kinase domain, ADP-Glo
# T2 construct: recombinantly generated catalytic kinase (also known as JH1) domain of human JAK1, JAK2, JAK3 and TYK2
# Method in brief: as §1
# [3] = biological target: T3, human JAK2 kinase domain (JH1) (Homo sapiens, UniProt O60674); experiment: JH1 biochemical assay for JAK2 (ADP-Glo kinase assay, recombinant JH1 catalytic domain, JAK3-974 peptide, 15 μM ATP); conditions: JH1 kinase domain, ADP-Glo
# T3 construct: recombinantly generated catalytic kinase (also known as JH1) domain of human JAK1, JAK2, JAK3 and TYK2
# Method in brief: as §1
# [4] = biological target: T4, human JAK3 kinase domain (JH1) (Homo sapiens, UniProt P52333); experiment: JH1 biochemical assay for JAK3 (ADP-Glo kinase assay, recombinant JH1 catalytic domain, JAK3-974 peptide, 4 μM ATP); conditions: JH1 kinase domain, ADP-Glo
# T4 construct: recombinantly generated catalytic kinase (also known as JH1) domain of human JAK1, JAK2, JAK3 and TYK2
# Method in brief: as §1
# [5] = biological target: Tyk2 kinase activity on STAT4 in NK92 cells (Homo sapiens, UniProt P29597); experiment: pSTAT4 cell assay (MSD; NK92 cells, 30 ng/mL IL2 stimulation); assay type: cell-based; conditions: 30 ng/mL IL2, 15 minutes
# Method in brief: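 IC50 values derive from 4-parameter logistic fits of normalized percent activity against log compound concentration. Phospho-STAT was measured by MSD with anti-STAT4 antibodies after 15 min of 30 ng/mL IL2 in serum-starved NK92 cells pretreated 1 hr with compound.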
# [6] = biological target: JAK2 kinase activity on STAT5 in TF1 cells (Homo sapiens, UniProt O60674); experiment: pSTAT5 cell assay (MSD; TF1 cells, 30 ng/mL IL-3 stimulation); assay type: cell-based; conditions: 30 ng/mL IL-3, 15 minutes
# Method in brief: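 Serum-starved TF1 cells with native JAK2/STAT5 were pretreated 1 h with compound (10-point four-fold dilutions from 10 μM), then stimulated 15 min with 30 ng/mL IL-3. pSTAT5 in lysates quantified by MSD immunoassay; normalized percent activity fitted to a 4-parameter logistic curve for IC50.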
# [7] = biological target: JAK1 kinase activity on STAT3 in TF1 cells (Homo sapiens, UniProt P23458); experiment: pSTAT3 cell assay (MSD; TF1 cells, 30 ng/mL IL-6 stimulation); assay type: cell-based; conditions: 30 ng/mL IL-6, 15 minutes
# Method in brief: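 Serum-starved TF1 cells were pretreated with compound for 1 hour (10-point, four-fold dilutions from 10 μM), then stimulated with IL-6 for 15 minutes. Lysates were assayed for pSTAT3 by MSD with anti-STAT3 antibodies; IC50 came from a 4-parameter logistic fit of normalized percent activity.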
# Tyk2 kinase activity on STAT4 in NK92 cells, sequence (P29597 whole entry): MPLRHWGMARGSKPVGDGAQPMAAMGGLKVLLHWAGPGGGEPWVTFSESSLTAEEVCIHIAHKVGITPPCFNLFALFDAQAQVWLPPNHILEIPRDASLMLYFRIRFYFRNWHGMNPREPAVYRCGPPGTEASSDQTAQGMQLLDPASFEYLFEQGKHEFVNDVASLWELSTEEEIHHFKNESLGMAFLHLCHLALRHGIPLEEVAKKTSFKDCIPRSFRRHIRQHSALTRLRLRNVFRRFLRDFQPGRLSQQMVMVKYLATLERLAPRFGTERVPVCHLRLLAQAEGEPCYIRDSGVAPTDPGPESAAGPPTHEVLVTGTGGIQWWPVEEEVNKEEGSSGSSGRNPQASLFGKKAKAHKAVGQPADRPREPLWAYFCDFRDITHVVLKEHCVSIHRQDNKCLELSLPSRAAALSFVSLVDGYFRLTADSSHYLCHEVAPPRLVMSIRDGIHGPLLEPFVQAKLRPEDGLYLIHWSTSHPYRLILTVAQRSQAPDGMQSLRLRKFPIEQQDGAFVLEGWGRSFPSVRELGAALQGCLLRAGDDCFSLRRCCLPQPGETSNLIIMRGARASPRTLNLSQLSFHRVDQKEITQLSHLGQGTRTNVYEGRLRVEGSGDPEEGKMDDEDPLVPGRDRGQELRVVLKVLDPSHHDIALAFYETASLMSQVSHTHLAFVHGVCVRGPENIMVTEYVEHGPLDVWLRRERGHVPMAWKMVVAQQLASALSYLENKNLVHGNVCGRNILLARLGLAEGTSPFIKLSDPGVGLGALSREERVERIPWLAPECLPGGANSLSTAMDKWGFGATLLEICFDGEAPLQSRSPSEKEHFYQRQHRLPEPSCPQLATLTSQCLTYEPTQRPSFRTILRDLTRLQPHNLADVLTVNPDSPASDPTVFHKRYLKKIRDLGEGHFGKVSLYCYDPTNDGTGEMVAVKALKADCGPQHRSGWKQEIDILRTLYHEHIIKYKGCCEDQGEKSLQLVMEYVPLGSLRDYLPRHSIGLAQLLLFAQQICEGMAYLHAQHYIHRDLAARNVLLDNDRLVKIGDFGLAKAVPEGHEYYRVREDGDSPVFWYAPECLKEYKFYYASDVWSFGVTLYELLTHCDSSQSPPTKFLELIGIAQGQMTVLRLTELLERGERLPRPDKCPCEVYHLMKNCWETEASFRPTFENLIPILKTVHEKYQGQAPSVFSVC
# T3 sequence (O60674 849-1124 limits assumed): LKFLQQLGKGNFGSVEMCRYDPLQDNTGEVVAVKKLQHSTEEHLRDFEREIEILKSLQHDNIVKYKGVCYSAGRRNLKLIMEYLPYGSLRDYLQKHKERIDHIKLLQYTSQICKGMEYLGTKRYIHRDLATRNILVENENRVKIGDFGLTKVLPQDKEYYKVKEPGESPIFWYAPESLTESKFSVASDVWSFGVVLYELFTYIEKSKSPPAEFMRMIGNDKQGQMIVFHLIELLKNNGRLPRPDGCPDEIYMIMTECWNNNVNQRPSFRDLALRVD
# T4 sequence (P52333 822-1111 limits assumed): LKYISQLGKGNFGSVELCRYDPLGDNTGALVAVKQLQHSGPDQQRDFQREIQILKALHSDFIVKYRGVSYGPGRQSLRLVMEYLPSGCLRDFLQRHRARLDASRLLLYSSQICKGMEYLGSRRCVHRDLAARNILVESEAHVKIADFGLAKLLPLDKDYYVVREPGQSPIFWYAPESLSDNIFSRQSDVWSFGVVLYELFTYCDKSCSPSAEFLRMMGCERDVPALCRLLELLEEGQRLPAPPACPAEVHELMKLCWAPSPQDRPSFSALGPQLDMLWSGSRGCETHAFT
# JAK2 kinase activity on STAT5 in TF1 cells, sequence (O60674 whole entry): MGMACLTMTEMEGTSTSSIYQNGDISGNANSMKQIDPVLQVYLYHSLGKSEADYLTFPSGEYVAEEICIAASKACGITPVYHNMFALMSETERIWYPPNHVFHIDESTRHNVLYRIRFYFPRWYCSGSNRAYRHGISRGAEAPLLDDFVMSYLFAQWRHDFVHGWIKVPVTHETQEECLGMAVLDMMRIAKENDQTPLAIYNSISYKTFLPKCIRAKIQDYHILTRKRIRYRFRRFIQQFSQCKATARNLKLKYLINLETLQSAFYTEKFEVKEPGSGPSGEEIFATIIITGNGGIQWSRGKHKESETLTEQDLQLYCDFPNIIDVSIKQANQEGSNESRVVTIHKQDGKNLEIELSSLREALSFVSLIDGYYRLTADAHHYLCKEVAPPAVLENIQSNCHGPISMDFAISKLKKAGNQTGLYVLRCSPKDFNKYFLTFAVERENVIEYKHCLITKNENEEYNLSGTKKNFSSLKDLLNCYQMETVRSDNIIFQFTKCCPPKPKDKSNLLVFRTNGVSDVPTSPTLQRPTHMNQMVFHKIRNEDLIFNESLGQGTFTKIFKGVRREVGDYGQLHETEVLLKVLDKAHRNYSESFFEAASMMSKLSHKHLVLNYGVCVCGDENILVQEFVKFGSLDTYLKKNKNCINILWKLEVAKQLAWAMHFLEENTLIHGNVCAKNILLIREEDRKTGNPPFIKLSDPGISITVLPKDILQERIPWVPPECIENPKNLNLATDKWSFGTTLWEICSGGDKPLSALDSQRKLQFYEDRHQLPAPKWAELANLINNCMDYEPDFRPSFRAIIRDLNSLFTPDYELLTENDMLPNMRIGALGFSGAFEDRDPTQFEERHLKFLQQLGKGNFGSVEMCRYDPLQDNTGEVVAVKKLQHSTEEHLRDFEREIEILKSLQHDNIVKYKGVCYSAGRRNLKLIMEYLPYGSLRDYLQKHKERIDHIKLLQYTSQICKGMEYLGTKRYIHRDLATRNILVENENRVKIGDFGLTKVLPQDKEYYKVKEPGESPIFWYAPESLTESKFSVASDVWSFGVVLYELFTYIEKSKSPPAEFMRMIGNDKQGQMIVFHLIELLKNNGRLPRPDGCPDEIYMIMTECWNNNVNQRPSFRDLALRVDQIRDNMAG
# T2 sequence (P23458 875-1153 limits assumed): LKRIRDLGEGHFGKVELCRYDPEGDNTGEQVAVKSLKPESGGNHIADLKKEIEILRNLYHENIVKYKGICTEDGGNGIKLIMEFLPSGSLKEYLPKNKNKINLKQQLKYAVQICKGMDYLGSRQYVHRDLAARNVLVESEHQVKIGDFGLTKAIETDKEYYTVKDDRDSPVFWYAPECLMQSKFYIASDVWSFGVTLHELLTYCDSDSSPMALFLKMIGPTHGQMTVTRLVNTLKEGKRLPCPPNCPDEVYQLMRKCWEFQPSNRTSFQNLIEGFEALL
# JAK1 kinase activity on STAT3 in TF1 cells, sequence (P23458 whole entry): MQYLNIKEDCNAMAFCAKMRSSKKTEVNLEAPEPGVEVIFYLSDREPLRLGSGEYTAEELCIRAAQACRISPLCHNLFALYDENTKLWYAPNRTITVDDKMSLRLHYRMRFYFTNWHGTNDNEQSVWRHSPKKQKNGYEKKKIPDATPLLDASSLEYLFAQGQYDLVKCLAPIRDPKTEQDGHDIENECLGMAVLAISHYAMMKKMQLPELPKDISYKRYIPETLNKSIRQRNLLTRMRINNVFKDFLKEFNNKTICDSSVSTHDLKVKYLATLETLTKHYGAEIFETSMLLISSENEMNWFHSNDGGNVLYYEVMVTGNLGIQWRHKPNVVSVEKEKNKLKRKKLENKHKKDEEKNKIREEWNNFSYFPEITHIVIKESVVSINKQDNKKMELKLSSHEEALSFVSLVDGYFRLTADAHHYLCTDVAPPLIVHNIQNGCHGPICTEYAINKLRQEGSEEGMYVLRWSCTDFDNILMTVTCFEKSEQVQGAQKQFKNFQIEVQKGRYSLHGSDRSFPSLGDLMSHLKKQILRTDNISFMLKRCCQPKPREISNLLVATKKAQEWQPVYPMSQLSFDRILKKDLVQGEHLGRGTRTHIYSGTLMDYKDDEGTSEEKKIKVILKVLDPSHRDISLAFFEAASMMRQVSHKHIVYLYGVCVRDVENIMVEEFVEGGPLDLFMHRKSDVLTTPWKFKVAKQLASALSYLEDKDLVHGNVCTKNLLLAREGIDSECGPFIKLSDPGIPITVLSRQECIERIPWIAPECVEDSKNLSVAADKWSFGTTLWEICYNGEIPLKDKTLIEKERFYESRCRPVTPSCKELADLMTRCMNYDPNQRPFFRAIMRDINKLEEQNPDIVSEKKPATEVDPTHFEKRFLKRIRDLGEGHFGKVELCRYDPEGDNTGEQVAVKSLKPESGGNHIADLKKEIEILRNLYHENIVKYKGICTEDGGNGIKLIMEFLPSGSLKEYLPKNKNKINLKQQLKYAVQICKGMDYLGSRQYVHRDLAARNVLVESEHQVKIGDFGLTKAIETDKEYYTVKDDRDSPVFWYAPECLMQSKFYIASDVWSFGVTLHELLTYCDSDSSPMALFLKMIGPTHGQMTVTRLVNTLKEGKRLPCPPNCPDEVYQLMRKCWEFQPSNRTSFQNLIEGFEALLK
Compound,IC50 [1] [nM],IC50 [2] [nM],IC50 [3] [nM],IC50 [4] [nM],IC50 [5] [nM],IC50 [6] [nM],IC50 [7] [nM]
"C[C@@H]1CN(c2ccnn3cc(-c4cnc5cc(C#N)ccn45)cc23)C(=O)[C@]1(C#N)C1CC1 [Example 103, 3-(4-((3R,4S)-3-cyano-3-cyclopropyl-4-methyl-2-oxopyrrolidin-1-yl)pyrrolo[1,2-b]pyridazin-6-yl)imidazo[1,2-a]pyridine-7-carbonitrile trifluoroacetate]",5 to 20,> 10000,> 10000,> 10000,> 100,> 10000,> 10000
"C[C@@H]1CN(c2ccnn3cc(-c4cc5n(n4)CCO5)cc23)C(=O)[C@]1(C#N)C1CC1 [Example 110, (3R,4S)-3-cyclopropyl-1-(6-(2,3-dihydropyrazolo[5,1-b]oxazol-6-yl)pyrrolo[1,2-b]pyridazin-4-yl)-4-methyl-2-oxopyrrolidine-3-carbonitrile trifluoroacetate]",5 to 20,100 to 1000,100 to 1000,100 to 1000,> 100,> 10000,> 10000
"C[C@@H]1CN(c2ccnn3cc(-c4cn(C)nn4)cc23)C(=O)[C@]1(C#N)C1CC1 [Example 112, (3R,4S)-3-cyclopropyl-4-methyl-1-(6-(1-methyl-1H-1,2,3-triazol-4-yl)pyrrolo[1,2-b]pyridazin-4-yl)-2-oxopyrrolidine-3-carbonitrile trifluoroacetate]",5 to 20,100 to 1000,100 to 1000,100 to 1000,> 100,> 10000,> 10000
"Cc1cnc(-c2cc3c(N4C[C@@H](C)[C@@](C#N)(C5CC5)C4=O)ccnn3c2)s1 [Example 118, (3R,4S)-3-cyclopropyl-4-methyl-1-(6-(5-methylthiazol-2-yl)pyrrolo[1,2-b]pyridazin-4-yl)-2-oxopyrrolidine-3-carbonitrile trifluoroacetate]",5 to 20,100 to 1000,100 to 1000,100 to 1000,> 100,> 10000,5000 to 10000
"C[C@@H]1CN(c2ccnn3cc(-c4ccc(C(=O)N(C)C)cn4)cc23)C(=O)[C@]1(C#N)C1CC1 [Example 124, 6-(4-((3R,4S)-3-cyano-3-cyclopropyl-4-methyl-2-oxopyrrolidin-1-yl)pyrrolo[1,2-b]pyridazin-6-yl)-N,N-dimethylnicotinamide trifluoroacetate]",5 to 20,100 to 1000,100 to 1000,100 to 1000,> 100,5000 to 10000,5000 to 10000
"C[C@@H]1CN(c2ccnn3cc(-c4ccc(CC#N)cn4)cc23)C(=O)[C@]1(C#N)C1CC1 [Example 127, (3R,4S)-1-(6-(5-(cyanomethyl)pyridin-2-yl)pyrrolo[1,2-b]pyridazin-4-yl)-3-cyclopropyl-4-methyl-2-oxopyrrolidine-3-carbonitrile trifluoroacetate]",5 to 20,100 to 1000,100 to 1000,100 to 1000,> 100,> 10000,5000 to 10000
"C[C@@H]1CN(c2ccnn3cc(-c4cccc5cncn45)cc23)C(=O)[C@]1(C#N)C1CC1 [Example 128, (3R,4S)-3-cyclopropyl-1-(6-(imidazo[1,5-a]pyridin-5-yl)pyrrolo[1,2-b]pyridazin-4-yl)-4-methyl-2-oxopyrrolidine-3-carbonitrile trifluoroacetate]",5 to 20,100 to 1000,1000 to 5000,100 to 1000,> 100,> 10000,> 10000
"C[C@@H]1CN(c2ccnn3cc(-c4ccc(N(C)C)cn4)cc23)C(=O)[C@]1(C#N)C1CC1 [Example 134, (3R,4S)-3-cyclopropyl-1-(6-(5-(dimethylamino)pyridin-2-yl)pyrrolo[1,2-b]pyridazin-4-yl)-4-methyl-2-oxopyrrolidine-3-carbonitrile trifluoroacetate]",5 to 20,100 to 1000,100 to 1000,100 to 1000,> 100,5000 to 10000,1000 to 5000

# Results, then the compound that gave them:
IC50 [1] [nM],IC50 [2] [nM],IC50 [3] [nM],IC50 [4] [nM],IC50 [5] [nM],IC50 [6] [nM],IC50 [7] [nM],Compound
5 to 20,100 to 1000,100 to 1000,100 to 1000,> 100,> 10000,1000 to 5000,"C[C@@H]1CN(c2ccnn3cc(-c4cnc(C(F)F)s4)cc23)C(=O)[C@]1(C#N)C1CC1 [Example 101, (3R,4S)-3-cyclopropyl-1-(6-(2-(difluoromethyl)thiazol-5-yl)pyrrolo[1,2-b]pyridazin-4-yl)-4-methyl-2-oxopyrrolidine-3-carbonitrile trifluoroacetate]"
5 to 20,100 to 1000,1000 to 5000,100 to 1000,> 100,> 10000,5000 to 10000,"C[C@@H]1CN(c2ccnn3cc(-c4nc5cnccc5s4)cc23)C(=O)[C@]1(C#N)C1CC1 [Example 102, (3R,4S)-3-cyclopropyl-4-methyl-2-oxo-1-(6-(thiazolo[4,5-c]pyridin-2-yl)pyrrolo[1,2-b]pyridazin-4-yl)pyrrolidine-3-carbonitrile trifluoroacetate]"
< 5,100 to 1000,100 to 1000,100 to 1000,> 100,5000 to 10000,1000 to 5000,"C[C@@H]1CN(c2ccnn3cc(-c4cc5ccccn5n4)cc23)C(=O)[C@]1(C#N)C1CC1 [Example 104, (3R,4S)-3-cyclopropyl-4-methyl-2-oxo-1-(6-(pyrazolo[1,5-a]pyridin-2-yl)pyrrolo[1,2-b]pyridazin-4-yl)pyrrolidine-3-carbonitrile trifluoroacetate]"
< 5,100 to 1000,100 to 1000,100 to 1000,> 100,> 10000,> 10000,"C[C@@H]1CN(c2ccnn3cc(-c4cn5c(n4)CCC5)cc23)C(=O)[C@]1(C#N)C1CC1 [Example 106, (3R,4S)-3-cyclopropyl-1-(6-(6,7-dihydro-5H-pyrrolo[1,2-a]imidazol-2-yl)pyrrolo[1,2-b]pyridazin-4-yl)-4-methyl-2-oxopyrrolidine-3-carbonitrile trifluoroacetate]"
< 5,100 to 1000,100 to 1000,100 to 1000,> 100,> 10000,> 10000,"C[C@@H]1CN(c2ccnn3cc(-c4cn(C)cn4)cc23)C(=O)[C@]1(C#N)C1CC1 [Example 111, (3R,4S)-3-cyclopropyl-4-methyl-1-(6-(1-methyl-1H-imidazol-4-yl)pyrrolo[1,2-b]pyridazin-4-yl)-2-oxopyrrolidine-3-carbonitrile trifluoroacetate]"
< 5,< 100,100 to 1000,100 to 1000,50 to 100,1000 to 5000,100 to 1000,"CC(=O)Nc1cccc(-c2cc3c(N4C[C@@H](C)[C@@](C#N)(C5CC5)C4=O)ccnn3c2)n1 [Example 131, N-(6-(4-((3R,4S)-3-cyano-3-cyclopropyl-4-methyl-2-oxopyrrolidin-1-yl)pyrrolo[1,2-b]pyridazin-6-yl)pyridin-2-yl)acetamide trifluoroacetate]"
